Results: publication doi:10.1101/2022.10.28.514248v1 (biorxiv, 2022)
Where a chain is given by its changes, count along the chain named.

Experiments:
GDAP1ΔTM [1] = biological target: T1, GDAP1ΔTM (Mus musculus, UniProt O88741); test: native PAGE titration, band quantification, Hill fit; format: binding
T1 sequence (O88741 1-322): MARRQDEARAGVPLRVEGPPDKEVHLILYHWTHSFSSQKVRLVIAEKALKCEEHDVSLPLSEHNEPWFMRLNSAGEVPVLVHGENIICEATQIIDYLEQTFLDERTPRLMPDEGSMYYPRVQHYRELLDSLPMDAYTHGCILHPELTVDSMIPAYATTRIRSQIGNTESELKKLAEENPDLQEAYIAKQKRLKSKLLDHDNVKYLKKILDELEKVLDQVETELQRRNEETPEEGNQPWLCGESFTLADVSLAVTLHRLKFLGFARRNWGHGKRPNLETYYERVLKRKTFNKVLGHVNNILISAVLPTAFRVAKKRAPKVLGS

GDAP1ΔTM [2] = biological target: T1, GDAP1ΔTM; test: anti-4HNE Western blot of Michael adduct formation, Hill fit; format: biochemical
GDAP1ΔTM [3] = biological target: T2, GDAP1ΔTM (Mus musculus, UniProt O88741, T157P); test: native PAGE titration, band quantification, Hill fit; format: binding
T2 sequence (O88741 1-322 T157P): T1 sequence (O88741 1-322) with T157P

GDAP1ΔTM [4] = biological target: T1, GDAP1ΔTM; test: fluorescence polarization, N-terminally fluorescein-labelled protein; format: binding

Kd (GDAP1ΔTM [1]) [µM] | EC50 (GDAP1ΔTM [2]) [µM] | Kd (GDAP1ΔTM [3]) [µM] | Kd (GDAP1ΔTM [4]) [µM] | SMILES
398 | 241 ± 52 | 1330 ± 259 | – | CCCCCC(O)/C=C/C=O (stereo not shown) [4-hydroxynonenal]
– | – | – | ~34 | O=C(O)CCCCCCCCCCCCCCC(=O)O [thapsic acid]
